# According to US20110301110A1, “TRIM33 (TIF1gamma) AS A NEW DIAGNOSTIC MARKER OF CHRONIC MYELOMONOCYTIC LEUKEMIA (CMML)” (priority 2010, published 2011):
# Experiments:
# NALM-6 = NALM-6 human tumor cell line; cited from earlier work
# HCT116 = HCT116 human tumor cell line; cited from earlier work
# [1] = tested on: TIF1γ expression in sorted PB monocytes (CD14+ cells); assay: TIF1γ expression (RQ-PCR, immuno-blotting) in sorted PB monocytes (CD14+ cells) of a CMML patient before and after treatment with decitabine; type: in vivo, human; conditions: one CMML patient with very low Tif1γ level, after 5 cycles of decitabine; sorted PB monocytes (FIG. 7A)
# Protocol: Protein extracts were prepared from purified human monocytes (CD14+ cells) for SDS-PAGE and immuno-blotting with anti-TIF1γ antibody. Equivalent loading of lanes was controlled by the use of an anti-HSC70 antibody.
# [2] = tested on: Tif1γ-deficient Lin- cells; assay: Tif1γ-deficient Lin- cells cultured for 10 days in the presence or absence of TGF-β, myelopoiesis; type: cell-based, mouse; conditions: 10 days culture
# Protocol: (§1) To answer this question, control and Tif1γ-deficient Lin^− cells were cultured for 10 days in the presence or absence of TGF-β. Cells were also treated with TGF-β inhibitor.
# control Lin- cells = control Lin- cells cultured for 10 days in the presence or absence of TGF-β or TGF-β inhibitor, formation of myeloid cells; type: cell-based, mouse; conditions: 10 days culture, compared to untreated cultures
# Protocol: as §1
compound,measurement,setting,value
"O=C(O)C(Cc1c[nH]c2ccccc12)N1C(=O)c2ccccc2C1=O (centres unmarked) [RG 108, N-phthalyl-1-tryptophan]",proliferation,NALM-6,inhibits
same,proliferation,HCT116,inhibits
"Nc1ncn([C@H]2C[C@H](O)[C@@H](CO)O2)c(=O)n1 [decitabine, 4-amino-1-(2-deoxy-b-D-erythro-pentofuranosyl)-1,3,5-triazin-2(1 H)-one]","TIF1γ expression, increase compared to the level measured before treatment",[1],8 fold
TGF-β,myelopoiesis,[2],did not inhibit myelopoiesis
same,formation of myeloid cells,control Lin- cells,limited formation of myeloid cells
